Structures can show the parent of a compound that is named as a salt.

For orientation: inhibition means how much of the control response was suppressed. Low readings indicate a response near the control, high ones a response far below the control.

This assay has as its target T1, thromboxane synthetase (Rattus norvegicus, UniProt P49430).
T1 construct: The platelets were isolated by centrifuging the PRP for 10 minutes at 1060xg; from tissue; host or cells: washed blood platelets from Okamoto-Aoki spontaneously hypertensive rats (SHR)
T1 sequence (P49430 1-533): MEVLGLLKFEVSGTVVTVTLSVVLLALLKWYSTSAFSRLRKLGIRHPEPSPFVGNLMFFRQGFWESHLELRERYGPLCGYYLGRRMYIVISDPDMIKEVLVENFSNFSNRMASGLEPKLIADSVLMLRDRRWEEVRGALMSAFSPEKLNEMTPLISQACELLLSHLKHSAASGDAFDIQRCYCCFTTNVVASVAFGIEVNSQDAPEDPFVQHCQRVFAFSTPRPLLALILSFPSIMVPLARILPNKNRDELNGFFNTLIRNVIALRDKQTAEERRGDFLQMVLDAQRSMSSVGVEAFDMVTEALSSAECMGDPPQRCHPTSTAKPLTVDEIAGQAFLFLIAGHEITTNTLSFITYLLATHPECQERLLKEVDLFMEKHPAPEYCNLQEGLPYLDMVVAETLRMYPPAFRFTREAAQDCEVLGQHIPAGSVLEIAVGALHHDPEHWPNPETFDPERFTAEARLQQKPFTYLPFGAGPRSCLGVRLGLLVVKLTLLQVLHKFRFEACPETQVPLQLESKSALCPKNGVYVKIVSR
Briefly: Inhibition of thromboxane (TX) formation (TXB2 radioimmunoassay) in washed rat platelets. The assay is classed as cell-based, Okamoto-Aoki spontaneously hypertensive rats (SHR). As to conditions: percent inhibition of TXB2 formation; drug at 10^-4M; SHR platelet suspension, 10 minutes at 37 C. The text has this: The platelet rich plasma (PRP) was separated. […] The inhibition of thromboxane (TX) formation was studied by determing the concentration of thromboxane […] (TXB2), the stable hydrolysis product of TXA2.
With `O=c1c2cc(Br)ccc2ncn1CCCCc1cccnc1` [6-Bromo-3-[4-(3-pyridyl)butyl]-4(3H)-quinazolinone], 100 µM produced 99% inhibition. Under `CC(Cn1ccnc1)Cn1nnc2ccc(Cl)cc2c1=O` (centres unmarked) [6-Chloro-3-[3-(1H-imidazol-1-yl)-2-methyl-propyl]-1,2,3-benzotriazin-4(3H)-one, mono-hydrochloride] stands 93%; under `O=c1c2cc(Cl)ccc2nnn1CCCCn1ccnc1` [6-Chloro-3-[4-(1H-imidazol-1-yl)butyl]-1,2,3-benzotriazin-4(3H)-one, monohydro-chloride], 97%.

Molecule `O=c1[nH]c2ccc([N+](=O)[O-])cc2c(=O)n1CCCn1ccnc1` [Example 15, 3-[3-(1H-Imidazol-1-yl)propyl]-6-nitro-2,4(1H,3H)-quinazolinedione] yielded an inhibition at 100 µM of 100%. Under `O=c1[nH]c2ccccc2c(=O)n1CCCCc1cccnc1` [Example 22, 3-[4-(3-Pyridinyl)butyl]-2,4(1H,3H)-quinazolinedione] stands 99%. Under `O=c1[nH]c2ccc(Cl)cc2c(=O)n1CCCn1ccnc1-c1ccccc1` [Example 27, 6-Chloro-3-[3-(2-phenyl-1H-imidazol-1-yl)propyl]-2,4(1H,3H)-quinazolinedione] stands 52%.

Take `O=c1[nH]c2ccc(Cl)cc2c(=O)n1CCCCc1cccnc1` [Example 29, 6-Chloro-3-[4-(3-pyridinyl)butyl]-2,4(1H,3H)-quinazolinedione]: at 100 µM the inhibition was 100%. Under `O=c1[nH]c2ccc(Cl)cc2c(=O)n1CCCCCn1ccnc1` [Example 32, 6-Chloro-3-[5-(1H-imidazol-1-yl)pentyl]-2,4(1H,3H)-quinazolinedione] stands 63%; under `O=c1[nH]c2ccc(Cl)cc2c(=O)n1CCC(c1ccccc1)n1ccnc1` (centres unmarked) [Example 36, 6-Chloro-3-[3-(1H-imidazol-1-yl)-3-phenylpropyl]-2,4(1H,3H)-quinazolinedione], 93%. In the case of `CC(Cn1ccnc1)Cn1c(=O)[nH]c2c(Cl)cccc2c1=O` (centres unmarked) [Example 45, 8-Chloro-3-[3-(1H-imidazol-1-yl)-2-methylpropyl]-2,4(1H,3H)-quinazolinedione] it was 71%; in that of `O=c1[nH]c2c(Cl)cc(Cl)cc2c(=O)n1CCCCn1ccnc1` [Example 46, 6,8-Dichloro-3-[4-(1H-imidazol-1-yl)-butyl]-2,4(1H,3H)-quinazolinedione], 89%; in that of `CC(CCn1c(=O)[nH]c2c(Cl)cc(Cl)cc2c1=O)n1ccnc1` (centres unmarked) [Example 47, 6,8-Dichloro-3-[3-(1H-imidazol-1-yl)-butyl]-2,4(1H,3H)-quinazolinedione], 67%. In the case of `CC(Cn1ccnc1)Cn1c(=O)[nH]c2c(Cl)cc(Cl)cc2c1=O` (centres unmarked) [Example 48, 6,8-Dichloro-3-[3-(1H-imidazol-1-yl)-2-methylpropyl]-2,4(1H,3H)-quinazoline-dione] it was 86%.

`O=c1[nH]c2ccc(Br)cc2c(=O)n1CCCn1ccnc1` [Example 51, 6-Bromo-3-[3-(1H-imidazol-1-yl)propyl]-2,4(1H,3H)-quinazolinedione]: the inhibition at 100 µM is 100%.

With `CC(Cn1ccnc1)Cn1nnc2ccccc2c1=O` (centres unmarked) [Example 78, 3-[3-(1H-Imidazol-1-yl)-2-methyl-propyl]-1,2,3-benzotriazin-4(3H)-one, monohydrochloride], the inhibition at 100 µM turned out to be 92%. Under `O=c1c2ccc(Cl)cc2nnn1CCCCn1ccnc1` [Example 80, 7-Chloro-3-[4-(1H-imidazol-1-yl)-butyl]-1,2,3-benzotriazin-4(3H)-one] stands 90%. In the case of `O=c1c2cc(Cl)cc(Cl)c2nnn1CCCCn1ccnc1` [Example 81, 6,8-Dichloro-3-[4-(1H-imidazol-1-yl)butyl]-1,2,3-benzotriazin-4(3H)-one, monohydrochloride] it was 93%; in that of `CC(Cn1ccnc1)Cn1nnc2ccc(Br)cc2c1=O` (centres unmarked) [Example 83, 6-Bromo-3-[3-(1H-imidazol-1-yl)--2-methylpropyl]-1,2,3-benzo-triazin-4(3H)-one], 99%; in that of `Cc1ccc2nnn(CC(C)Cn3ccnc3)c(=O)c2c1` (centres unmarked) [Example 85, 3-[3-(1H-Imidazol-1-yl)-2-methyl-propyl]-6-methyl-1,2,3-benzo-triazin-4(3H)-one, monohydro-chloride], 95%.

The molecule `O=c1c2ccccc2nnn1CCCCc1cccnc1` [Example 90, 3-[4-(3-Pyridin-yl)butyl]-1,2,3-benzotriazin-4(3H)-one] returned an inhibition at 100 µM of 75%.

The molecule `O=c1c2cc(Cl)ccc2nnn1CCCCCCCCCCn1ccnc1` [Example 91, 6-Chloro-3-[10-(1H-imidazol-1-yl)decyl]-1,2,3-benzotriazin-4(3H)-one, fumarate] gave an inhibition at 100 µM of 80%. Under `Cc1cn(CCCn2nnc3ccc(Cl)cc3c2=O)cn1` [Example 92, 6-Chloro-3-[3-(4-methyl-1H-imida-zol-1-yl)propyl]-1,2,3-benzotria-zin-4(3H)-one] stands 85%; under `O=c1c2cc(Cl)ccc2nnn1CCCCc1cccnc1` [Example 93, 6-Chloro-3-[4-(3-pyridinyl)butyl]-1,2,3-benzotria-zin-4(3H)-one], 85%.

Consider `O=c1c2cccc(C(F)(F)F)c2nnn1CCCCn1ccnc1` [Example 94, 3-[4-(1H-Imida-zol-1-yl)butyl]-8-trifluoro-methyl-1,2,3-benzotriazin-4(3H)-one], for which the inhibition at 100 µM turned out to be 86%. Molecule `O=c1c2cccc(C(F)(F)F)c2nnn1CCCCCn1ccnc1` [Example 95, 3-[5-(1H-Imida-zol-1-yl)pentyl]-8-trifluoro-methyl-1,2,3-benzotriazin-4(3H)-one] returned an inhibition at 100 µM of 87%. In the case of `Cc1cn(CCCn2cnc3ccccc3c2=O)cn1` [Example 133, 3-[3-(4-Methyl-1H-imidazol-1-yl)propyl]-4(3H)-quinazolinone] it was 74%. Under `O=c1c2ccccc2ncn1CCCCc1cccnc1` [Example 135, 3-[4-(3-Pyridyl)butyl]-4(3H)-quina-zolinone, dihydrochloride] stands 99%; under `O=c1c2ccccc2ncn1CCCCCCn1ccnc1` [Example 136, 3-[6-(1H-Imidazol-1-yl)hexyl]-4(3H)-quinazolinone, dihydrochloride], 86%.

Turning to `CC(Cn1ccnc1)Cn1cnc2ccc(Cl)cc2c1=O` (centres unmarked) [Example 141, 6-Chloro-3-[3-(1H-imidazol-1-yl)-2-methylpropyl]-4(3H)quinazolinone], the inhibition at 100 µM amounted to 94%. `O=c1c2cc(Cl)ccc2ncn1CCCCc1cccnc1` [Example 142, 6-Chloro-3-[4-(3-pyridyl)butyl]-4(3H)-quinazolinone] registered an inhibition at 100 µM of 100%. Under `O=c1c2cc(Cl)ccc2ncn1CCCn1ccnc1-c1ccccc1` [Example 144, 6-Chloro-3-[3-(2-phenyl-1H-imidazol-1-yl)propyl]-4(3H)-quinazolinone, dihydro-chloride] stands 96%; under `O=c1c2cc(Cl)ccc2ncn1CCC(c1ccccc1)n1ccnc1` (centres unmarked) [Example 148, 6-Chloro-3-[3-(1H-imidazol-1-yl)-3-phenylpropyl]-4-(3H)-quinazolinone], 79%.
